Assays:
[1] = molecular target: T1, phosphorylated Axl (pAxl Y702) in NCI-H1299 cells (Homo sapiens, UniProt P30530); assay: Intracellular Axl Phosphorylation Inhibitory Activity (pAxl, NCI-H1299 cells); type: cell-based; conditions: 1 h compound incubation, GAS6 stimulation 10 minutes, pAxl (Y702) level
T1 construct: endogenous in cells; host or cells: NCI-H1299
T1 sequence (P30530 26-894): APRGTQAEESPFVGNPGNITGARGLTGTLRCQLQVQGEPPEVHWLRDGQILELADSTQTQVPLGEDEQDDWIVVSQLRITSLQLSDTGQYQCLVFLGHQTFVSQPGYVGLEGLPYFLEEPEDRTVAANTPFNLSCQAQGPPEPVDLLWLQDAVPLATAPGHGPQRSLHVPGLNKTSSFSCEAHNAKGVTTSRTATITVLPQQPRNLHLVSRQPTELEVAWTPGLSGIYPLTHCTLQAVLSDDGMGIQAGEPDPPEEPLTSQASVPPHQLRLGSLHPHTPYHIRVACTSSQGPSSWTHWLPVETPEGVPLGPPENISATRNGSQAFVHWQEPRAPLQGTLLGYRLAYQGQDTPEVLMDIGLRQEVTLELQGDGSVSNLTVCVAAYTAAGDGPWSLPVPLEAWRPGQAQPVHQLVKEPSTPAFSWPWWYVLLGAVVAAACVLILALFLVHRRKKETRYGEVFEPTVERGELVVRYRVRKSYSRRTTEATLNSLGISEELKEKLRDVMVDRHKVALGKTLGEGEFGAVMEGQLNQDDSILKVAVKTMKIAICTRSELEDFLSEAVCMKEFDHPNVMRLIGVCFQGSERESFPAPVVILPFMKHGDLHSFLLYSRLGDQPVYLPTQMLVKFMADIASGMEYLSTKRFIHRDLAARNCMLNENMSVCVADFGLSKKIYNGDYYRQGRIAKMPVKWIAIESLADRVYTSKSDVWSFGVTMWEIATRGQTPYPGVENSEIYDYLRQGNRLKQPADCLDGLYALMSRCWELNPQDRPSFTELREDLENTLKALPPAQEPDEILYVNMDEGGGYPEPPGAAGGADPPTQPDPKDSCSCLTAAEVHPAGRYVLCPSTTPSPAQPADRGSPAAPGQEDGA
Experimental: A phosphorylated Axl (hereinafter pAxl) inhibitory test was performed using the human non-small-cell lung cancer-derived cell strain NCI-H1299.
On the following day, the medium was removed, 100 μl of fresh medium were added, and the cells were cultured at 37° C. in the presence of 5% CO2 for one day.
The test compound was dissolved in DMSO and diluted with medium to prepare a sample solution (DMSO concentration: 2%). Twenty-five microliters of medium or sample-added medium was added to each well (DMSO concentration: 0.4%), and the plate was incubated at 37° C. in the presence of 5% CO2 for one hour.
After stirring, the plate was incubated at 37° C. in the presence of 5% CO2 for 10 minutes.
The supernatant was discarded, and 0.1 ml of a 37% formalin solution diluted to 4% with phosphate buffer (PBS) (hereinafter “4% formalin solution”) was added to each well. The plate was allowed to stand at room temperature for 10 minutes.
Next, the 4% formalin solution was discarded, and 0.2 ml of a solution of Triton X-100 diluted to 0.1% with PBS (hereinafter “wash buffer”) was added. The wash buffer was discarded using a decanter, and excess moisture in the plate was removed on a paper towel.
Subsequently, […] NaN3 and H2O2 were added to the wash buffer at 0.1% (hereinafter “quenching buffer”), and 0.1 ml of the quenching buffer was added to each well. The plate was allowed to stand at room temperature for 15 minutes.
The quenching buffer was discarded, and 0.2 ml of wash buffer was added. The wash buffer was discarded using a decanter, and excess moisture in the plate was removed on a paper towel.
Skim milk (Nacalai Tesque) was added to the wash buffer at a final concentration of 5% (hereinafter “blocking buffer”), and 0.25 ml of the blocking buffer was added to each well. The plate was allowed to stand at room temperature for one hour.
After light stirring, the plate was incubated for 20 minutes. Luminescence was then measured by ARVO sx (PerkinElmer), and the pAxl (Y702) level was measured.
pAxl Inhibitory activity was determined by the following formula. Inhibition %=100−(A−B)×100/(T−B)
A: Measurement of the test compound
T: Luminescence value of the reaction solution with a compound not added

[2] = molecular target: T2, AXL (fusion protein of amino acids 464-885 of the intracellular domain of human AXL with glutathione transferase) (Homo sapiens, UniProt P30530); assay: Cell-Free Axl Kinase Inhibitory Activity
T2 sequence (P30530 464-885 isoform P30530-2): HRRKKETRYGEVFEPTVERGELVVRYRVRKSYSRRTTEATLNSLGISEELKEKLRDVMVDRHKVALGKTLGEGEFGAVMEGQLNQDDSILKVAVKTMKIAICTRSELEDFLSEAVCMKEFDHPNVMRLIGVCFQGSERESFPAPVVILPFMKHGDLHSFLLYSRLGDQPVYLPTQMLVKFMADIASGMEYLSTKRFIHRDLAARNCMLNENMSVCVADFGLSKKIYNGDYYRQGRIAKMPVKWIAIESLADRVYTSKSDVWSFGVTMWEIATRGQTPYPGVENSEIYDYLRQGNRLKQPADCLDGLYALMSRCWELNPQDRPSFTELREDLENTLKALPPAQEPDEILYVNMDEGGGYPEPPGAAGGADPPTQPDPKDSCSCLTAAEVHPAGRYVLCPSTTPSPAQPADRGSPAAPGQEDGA

Row | Compound | IC50 [1] [µM] | IC50 [2] [µM]
1 | CCn1cc(C(=O)Nc2ccc(-c3cc(-c4ccc(OC)c(OC)c4)cnc3N)cc2)c(=O)c(-c2ccccc2)c1 [Example 18, N-{4-[2-Amino-5-(3,4-dimethoxyphenyl)pyridin-3-yl]phenyl}-1-ethyl-4-oxo-5-phenyl-1,4-dihydropyridine-3-carboxamide] | 0.05 to 0.1 | 0.001 to 0.01
2 | COc1ccc(-c2cnc(N)c(-c3ccc(NC(=O)c4cn(CC(F)(F)F)cc(-c5cccc(F)c5)c4=O)cc3)c2)cc1OC [Example 22, N-{4-[2-Amino-5-(3,4-dimethoxyphenyl)pyridin-3-yl]phenyl}-5-(3-fluorophenyl)-4-oxo-1-(2,2,2-trifluoroethyl)-1,4-dihydropyridine-3-carboxamide] | 0.05 to 0.1 | 0.001 to 0.01
3 | COc1ccc(-c2cnc(N)c(-c3ccc(NC(=O)c4c[nH]cc(-c5ccc(F)cc5)c4=O)cc3)c2)cc1OC [Example 1, N-{4-[2-Amino-5-(3,4-dimethoxyphenyl)pyridin-3-yl]phenyl}-5-(4-fluorophenyl)-4-oxo-1,4-dihydropyridine-3-carboxamide] | 0.05 to 0.1 | 0.001 to 0.01
4 | COc1ccc(-c2cnc(N)c(-c3ccc(NC(=O)c4cn(CC(F)(F)F)cc(-c5ccc(F)cc5)c4=O)cc3C)c2)cc1OC [Example 30, N-{4-[2-Amino-5-(3,4-dimethoxyphenyl)pyridin-3-yl]-3-methylphenyl}-5-(4-fluorophenyl)-4-oxo-1-(2,2,2-trifluoroethyl)-1,4-dihydropyridine-3-carboxamide] | 0.05 to 0.1 | 0.001 to 0.01
5 | COc1ccnc(N)c1-c1ccc(NC(=O)c2cn(Cc3ccc(F)cc3)cc(C(=O)N3CCCC3)c2=O)cc1 [Example 84, N-[4-(2-Amino-4-methoxypyridin-3-yl)phenyl]-1-(4-fluorobenzyl)-4-oxo-5-(pyrrolidin-1-ylcarbonyl)-1,4-dihydropyridine-3-carboxamide] | 0.1 to 0.5 | 0.01 to 0.02
6 | COc1ccc(-c2cnc(N)c(-c3ccc(NC(=O)c4cn(CC(F)(F)F)cc(-c5ccc(F)c(Br)c5)c4=O)cc3)c2)cc1OC [Example 89, N-{4-[2-Amino-5-(3,4-dimethoxyphenyl)pyridin-3-yl]phenyl}-5-(4-fluoro-3-bromophenyl)-4-oxo-1-(2,2,2-trifluoroethyl)-1,4-dihydropyridine-3-carboxamide] | 0.05 to 0.1 | 0.001 to 0.01

The remaining lines, values ahead:

Row | IC50 [1] [µM] | IC50 [2] [µM] | Compound
7 | 0.1 to 0.5 | 0.01 to 0.02 | COc1ccc(-c2cnc(N)c(-c3ccc(NC(=O)c4cn(CC(F)(F)F)cc(-c5ccc(F)cc5)c4=O)cc3)c2)cc1 [Example 32, N-{4-[2-Amino-5-(4-methoxyphenyl)pyridin-3-yl]phenyl}-5-(4-fluorophenyl)-4-oxo-1-(2,2,2-trifluoroethyl)-1,4-dihydropyridine-3-carboxamide]
8 | 0.1 to 0.5 | 0.01 to 0.02 | Cc1ccc(-c2cnc(N)c(-c3ccc(NC(=O)c4cn(CC(F)(F)F)cc(-c5ccc(F)cc5)c4=O)cc3)c2)cc1 [Example 35, N-{4-[2-Amino-5-(4-methylphenyl)pyridin-3-yl]phenyl}-5-(4-fluorophenyl)-4-oxo-1-(2,2,2-trifluoroethyl)-1,4-dihydropyridine-3-carboxamide]
9 | 0.05 to 0.1 | 0.001 to 0.01 | CN1CC=C(c2cnc(N)c(-c3ccc(NC(=O)c4cn(CC(F)(F)F)cc(-c5ccc(F)cc5)c4=O)cc3)c2)CC1 [Example 79, N-[4-(6-Amino-1′-methyl-1′,2′,3′,6′-tetrahydro-3,4′-bipyridin-5-yl)phenyl]-5-(4-fluorophenyl)-4-oxo-1-(2,2,2-trifluoroethyl)-1,4-dihydropyridine-3-carboxamide]
10 | 0.1 to 0.5 | 0.001 to 0.01 | Nc1ncc(-c2ccccc2)cc1-c1ccc(NC(=O)c2cn(CC(F)(F)F)cc(-c3ccc(F)cc3)c2=O)cc1 [Example 31, N-[4-(2-Amino-5-phenylpyridin-3-yl)phenyl]-5-(4-fluorophenyl)-4-oxo-1-(2,2,2-trifluoroethyl)-1,4-dihydropyridine-3-carboxamide]
